In publication PMC12415202, “Specificities of chemosensory receptors in the human gut microbiota” (Proceedings of the National Academy of Sciences of the …, 2025):
Blank lines part the entries; values can stand above or below the molecule they belong to.

Key:
Experiment in all cases: ITC
K1 LBD = target: T1, K1 LBD
T1 construct: source species and locus only in SI

C1 LBD = target: T2, C1 LBD
T2 construct: source species and locus only in SI
Text: ITC on C1 LBD | The binding of L-lactate to the K1 and C1 LBDs

B9 LBD = target: T3, B9 LBD
T3 construct: source species and locus only in SI
Text: ITC on B9 LBD | The binding of L-threonine to the B9 LBD

B6 LBD = target: T4, B6 LBD; set-up: species or system Catenibacterium mitsuokai
T4 construct: locus only in SI
Text: ITC on B6 LBD | the binding of indole to the B6 LBD were confirmed by isothermal titration calorimetry

D8 LBD = target: T5, D8 LBD; conditions: membrane-distal module
T5 construct: D8-dm = residues 33-179, D8-pm = residues 153-280; source species and locus only in SI

J6 LBD = target: T6, J6 LBD
T6 construct: source species and locus only in SI
Text: ITC on J6 LBD | ethylamine and methylamine to the J6 LBD was confirmed by ITC

Structure (SMILES): C=C(CC(=O)O)C(=O)O [itaconate]
Kd (D8 LBD): 9.6 ± 0.9 µM

Structure (SMILES): O=C(O)/C=C\C(=O)O [maleate]
Kd (D8 LBD): 7.7 ± 0.41 µM

Structure (SMILES): CN [methylamine]
Kd (J6 LBD): 242 ± 22 µM

Second part, the molecule after the results:

Kd (K1 LBD): 66.1 ± 10.7 µM
Structure (SMILES): C[C@@H](O)C(=O)O [D-lactate]

Kd (C1 LBD): 26.8 ± 0.91 µM
Kd (K1 LBD): 16 ± 0.56 µM
Structure (SMILES): C[C@H](O)C(=O)O [L-lactate]

Kd (B9 LBD): 1.3 ± 0.2 µM
Structure (SMILES): C[C@@H](O)[C@H](N)C(=O)O [L-threonine]

Kd (B6 LBD): 35.6 ± 7.02 µM
Structure (SMILES): c1ccc2[nH]ccc2c1 [indole]

Kd (D8 LBD): 1.7 ± 0.11 µM
Structure (SMILES): O=C(O)CCC(=O)O [succinate]
